Measurements reported in patent publication US20160367505A1, “PROTOTYPICAL ANALGESIC PROFILE OF N-STEARYL DOPAMINE (NS-DA)” (priority 2015, published 2016).

What was measured:
brain dopamine turnover = conditions: mice and rats; studies of the early ninety's; cited from earlier work
locomotion = conditions: mice and rats; studies of the early ninety's; cited from earlier work
[1] = test system: Paclitaxel induced pain sensitization in the formalin test of pain; experiment: Paclitaxel induced neuropathic sensitization (PINS) in the formalin test of pain; assay type: in vivo, mice; conditions: for PINS diminished: per os in Tween-80 (5%) suspension, vs Tween-80 (5%) controls
Text: NS-DA was synthesized and studied pharmacologically in the early ninety's.

| SMILES | effect on brain dopamine turnover (brain dopamine turnover) | effect on locomotion (locomotion) | analgesic effect (decrease) ([1]; 0-5 mn acute pain phase, females) [%] | analgesic effect ([1]; 0-5 mn acute pain phase, male mice) | suppression of PINS ([1]; 40 mg/kg ip in Cremophor.EL, 35-40 mn central sensitization phase, 1 hour after administration, vs Cremophor.EL control) [%] | analgesic effect (decrease) ([1]; 35-40 mn sensitization phase, males and females) | analgesic effect (decrease) ([1]; 55-60 mn sensitization phase, female mice) [%] | analgesic effect (decrease) ([1]; 55-60 mn sensitization phase, males) [%] | effect on PINS ([1]; NS-DA 10 mg/kg ip alone, 35-40 mn central sensitization phase) | analgesic activity against PINS ([1]; formalin test, mice, general statement) | PINS diminished ([1]; 1 hour after administration) [%] | PINS diminished ([1]; 2 hours after administration) [%] | PINS diminished ([1]; 4 hours after administration) [%] | decrease of PINS ([1]; morphine 3 mg/kg sc alone, 35-40 mn central sensitization phase) [%] |
| --- | --- | --- | --- | --- | --- | --- | --- | --- | --- | --- | --- | --- | --- | --- |
| CCCCCCCCCCCCCCCCCC(=O)NCCc1ccc(O)c(O)c1 [NS-DA] | decrease of the brain dopamine turnover | hypomotility | 65 | not significant | 94.8 | about 95% | 95 | 58 | inactive | high analgesic activity | 39 | 62 | 76 | – |
| CN1CC[C@]23c4c5ccc(O)c4O[C@H]2[C@@H](O)C=C[C@H]3[C@H]1C5 [morphine, reference compound] | – | – | – | – | – | – | – | – | – | – | – | – | – | 37 |
